# From patent US20230381139A1, “METHODS OF TREATING AND/OR PREVENTING ALZHEIMER’S DISEASE WITH R-CARVEDILOL” (priority 2020, published 2023)
# Assays:
# [1] = test system: RyR2-mediated Ca2+ release; experiment: Ex vivo two-photon Ca2+ imaging of caffeine-induced Ca2+ release in CA1 neurons of brain slices from treated 5×FAD+/− mice; set-up: species or system mouse; details: CA1 pyramidal neurons in brain slices of 4-5 months old 5×FAD+/− mice treated for 1 month; caffeine 40 mM; vs DMSO-treated
# [2] = test system: hippocampal CA1 and subiculum neurons of 3×TG+/− mice; experiment: Nissl staining, neuron density in 3×TG+/− mice; format: in vivo, mouse; details: 12-15 months old 3×TG+/− mice, 3.2 mg/kg/day for one month; vs DMSO
# Description: Genetically engineered mice of 12-15 months old, 3×TG+/− (Oddo et al., 2003), RyR2-E4872Q+/− (EQ+/−)(Chen et al., 2014), 3×TG+/−/RyR2-E48720+/− (3×TG+/−/EQ+/−), and WT littermates of both sexes were used. Sex differences, which may produce biological variables, were not investigated in this study. R-carvedilol (R-CV) (3.2 mg/kg/day) and vehicle control (DMSO) were delivered to 3×TG+/− mice in drinking water for one month. As shown previously, only heterozygous RyR2-E4872Q+/− mutant mice were produced as homozygous E4872Q+/+mutation is embryonic lethal (Chen et al., 2014). Functional RyR2s are tetrameric channels formed by 4 RyR2 monomers. The heterozygous E4872Q+/− mutant mice (harboring one WT allele and one E4872Q mutant allele) will produce a mixture of homo- and hetero-tetrameric channels that contain the WT, E48720 mutant, or both WT/E4872Q mutant monomers. Thus, the RyR2-E4872Q mutation can exert its negative impact not only on the function of the E4872Q homo-tetramers, but also on the function of the WT monomer in the WT/E4872Q hetero-tetrameric channels.
# For the Nissl staining, paraffin-embedded brain tissue sections (5 μm) were immersed in xylene (5 min, 2 times), rehydrated in absolute ethanol (5 min, 2 times) followed by 95%, 75% and 50% solutions of ethanol in water (5 min each), then washed in distilled water for 2 times, 5 min each. […]
# [3] = test system: 5×FAD+/− mice; experiment: Learning and memory tests (Morris water maze, novel object recognition) in 5×FAD+/− mice; format: in vivo, mouse; details: for learning and memory impairments (MWM, NOR): 4-6 months old 5×FAD mice
# Description: Adult genetically engineered mice, 5×FAD^+/− (Oakley et al., 2006), RyR2-E4872Q^+/− (EQ^+/−) (Chen et al., 2014), 5×FAD^+/−/RyR2-E4872Q^+/− (5×FAD^+/−/EQ^+/−), and wildtype (WT) littermates of both sexes were used. R-carvedilol (R-CV) (at doses of 0.8, 1.6 or 3.2 mg/kg/day), racemic carvedilol (3.2 mg/kg/day), and vehicle control (DMSO) were delivered to 5×FAD^+/− mice in drinking water for one month, starting at different ages before (2-3 months old) or after (3-4 months old) the occurrence of AD pathologies (Oakley et al., 2006). To assess the effects of genetically and pharmacologically limiting RyR2 open time on the prevention and rescue of AD deficits in different stages (early, moderate, and late) of AD progression, animals at different ages (from 2-15 months) were used. As reported (Oakley et al., 2006), there was an age-dependence of AD progression in the 5×FAD^+/− mice. No sex-dependent differences in AD progression in these mice was observed. For 2-photon Ca^2+ imaging experiments, 5×FAD, RyR2 WT, and RyR2 mutant mice were cross-bred with the heterozygous Thy1-GCaMP6f transgenic mice (Chen et al., 2012; Chen et al., 2013) (GP5.17, JAX 025393) to express the GCaMP6f Ca^2+ sensing probe (driven by the Thy1 promotor) in hippocampal neurons in each of the genotypes used.
# The learning and memory of mice with all genotypes were evaluated using the Morris water maze (MWM) test, the Barnes maze (BM) test, and/or the novel object recognition (NOR) test. Experiments were carried out blindly. For the MWM test, mice at different ages were trained to localize a hidden escape platform (10×10 cm) in a circular pool (116.84 cm in diameter, 50 cm in depth) (San Diego Instruments, CA) via distal visual cue. The platform was submerged 1-2 cm beneath the surface in water (22-24°C.), which was rendered opaque by addition of milk powder. The localization of the pool in relation to visual cues was maintained constantly during the entire task. The cues were distinct in color and shape. Digital division of the tracking area (pool) into four quadrants was performed by the SMART video tracking system, Smart 3.0 (Panlab Harvard Apparatus; Barcelona Spain). The escape platform was placed in the centre of the south-west quadrant for the entirety of the learning phase (4 training days) and digitally defined as target. Spatial training consisted of 4 days with 5 trials per mouse per day. Mice were released with their heads facing the pool wall at one of four entry locations (north, east, south and west) in a non-repetitive random order. Swimming was automatically video-tracked until the subject found the escape platform and remained on it (≥5 sec), or until a maximum of 60 seconds. […] In between trials (inter-trial interval ≥10 min), mice were housed in heated cages to avoid performance deficits due to exhaustion or hypothermia. The latency and swimming speed to reach the escape platform were recorded for comparison. After the learning phase, memory retention was evaluated by one probe trial 24 hours after the last training session. The escape platform was removed before mice were released from the north entry point into the pool. Their swimming was video-tracked for 60 seconds. The area at the location of the removed hidden platform was defined as the target and the south-west quadrant the target quadrant. The percentage of time mice spent in the target quadrant (including the target) were measured for comparison.
# For the NOR test, mice were habituated for 10 min per mouse in an equally illuminated, odor-free, white, plastic box (40×40×50 cm^3) embedded with fresh aspen shavings and shreds. In between each mouse trial the box was wiped with ethanol to avoid odor-induced stress. 24 hours after habituation, two identical objects ware placed at equal distance to each other and the corners of the box. Each mouse was placed into the center, and allowed to move freely for 10 min. Mice were video recorded during this familiarizing phase. […]
# [4] = test system: RyR2; details: cardiac cells; cited from earlier work
compound,measurement,setting,value
"COc1ccccc1OCCNC[C@@H](O)COc1cccc2[nH]c3ccccc3c12 [R-carvedilol, R-(+)-carvedilol]",Caffeine-induced Ca2+ release,[1],markedly reduced
same,density of neurons in the hippocampal CA1 region,[2],no significant difference
same,density of neurons in the subiculum area,[2],significantly higher
same,"learning and memory impairments (MWM, NOR)","[3]; 1.6 mg/kg/day for one month, vs DMSO",rescued
same,"memory loss / learning and memory deficits (MWM, NOR)","[3]; 3.2 mg/kg/day for one month started at 2-3 months of age (before AD symptoms), tested at 3-4 months, vs DMSO",prevented
same,"memory loss (MWM, NOR)","[3]; 3.2 mg/kg/day for one month started at 3-4 months of age (after AD symptom), tested at 4-5 months, vs DMSO",rescued
same,"learning and memory impairments (MWM, NOR)","[3]; 3.2 mg/kg/day for one month, vs DMSO",rescued
same,"beneficial effect on learning and memory, dependence on dose","[3]; 0.8, 1.6, 3.2 mg/kg/day for one month, 5×FAD mice",dose-dependent
same,"memory deficits (MWM, NOR)","[3]; 6-7 and 10-12 months old 5×FAD+/− mice (late stages of AD), 3.2 mg/kg/day for 1 month, vs DMSO",rescued
same,RyR2 open time,[4],shortened
